Experiment [1] can be described thus: Iron (II) ion chelation assay (ferrozine). The following applies: results for 1 mg/mL.
Method: The ion chelation assay was conducted using the method proposed by Li et al. [54]. Initially, 100 μL of extract at a concentration of 1.0 mg/mL was combined with methanol (150 μL, MeOH) and iron(II) chloride (5 μL, FeCl2) at a concentration of 2 mM. Subsequently, 5 μL of ferrozine was added at a concentration of 5 mM. Following a period of incubation, the absorbance was measured at a wavelength of 510 nm. The degree of chelation was then calculated using a specific equation, with ethylenediaminetetraacetic acid (EDTA) serving as a positive control. INHFe^2+=AC−AS/AC∗100%
AS—the absorbance for sample + ferrozine + FeCl2;
AC—the absorbance without sample + ferrozine + FeCl2.
Experiment [2] deals with hyaluronidase. The following applies: cited from earlier work.
The test system of experiment [3] is MCF-7 human breast adenocarcinoma cell line. Also on record: method as in PMID 25918798. The following applies: read-out: IC50 antiproliferative; cited from earlier work.
Experiment [4] deals with hyaluronidase from bovine testes (bHYAL) (Bos taurus, UniProt Q2YDK3). The experiment can be described thus: Bovine hyaluronidase inhibition assay (CTAB turbidimetric). The following applies: fractions of the 75% methanol extract and control (Table 5). The class given is biochemical. As to the method:
Bovine hyaluronidase inhibitor assays were conducted in 96-well plates, following a modified method originally described by Di Ferrante and Studzińska-Sroka. The activity of the compounds or extracts was determined based on the precipitation of non-hydrolyzed hyaluronic acid using cetyltrimethylammonium bromide (CTAB). A 10% water solution of DMSO was used to dissolve the extract. Then, 15 μL of extracts at concentrations of 10.0, 1.0, and 0.1 mg/mL in the well were mixed with an acetate buffer (15 μL, pH = 5.35), an incubation buffer (25 μL, pH = 5.35, 0.01% BSA, 0.45% NaCl), and an enzyme solution (25 μL, 30 U/mL in the incubation buffer). This mixture was incubated at 37 °C for 10 min. Following this, a hyaluronic acid solution (25 μL, 0.3 mg/mL in an acetate buffer with a pH of 5.35) was added. The plates were then incubated for an additional 45 min at 37 °C. After incubation, non-hydrolyzed hyaluronic acid was precipitated by adding 2.5% CTAB (200 μL). The plates were then maintained at 25 °C for 10 min. The intensity of the complex formation was measured at a wavelength of 600 nm. The presence of inhibition was determined by measuring the absorbance of the solution without the inhibitor (AC) and the enzyme (AT). All samples were tested in triplicate. The inhibition of hyaluronidase was calculated using a specific equation, with aescin used as a standard. INHHYAL=AS−AC/AT−AC∗100%
(§1) AS—absorbance of the HA + sample + enzyme;
(§2) AC—absorbance of the HA + enzyme;
(§3) AT—absorbance of the HA + sample.

Experiment [5] concerns the target T1, human serum hyaluronidase (hHYAL) (Homo sapiens, UniProt Q12794).
T1 construct: from tissue; host or cells: serum of children diagnosed with acute lymphoblastic leukemia
T1 sequence (Q12794 22-435): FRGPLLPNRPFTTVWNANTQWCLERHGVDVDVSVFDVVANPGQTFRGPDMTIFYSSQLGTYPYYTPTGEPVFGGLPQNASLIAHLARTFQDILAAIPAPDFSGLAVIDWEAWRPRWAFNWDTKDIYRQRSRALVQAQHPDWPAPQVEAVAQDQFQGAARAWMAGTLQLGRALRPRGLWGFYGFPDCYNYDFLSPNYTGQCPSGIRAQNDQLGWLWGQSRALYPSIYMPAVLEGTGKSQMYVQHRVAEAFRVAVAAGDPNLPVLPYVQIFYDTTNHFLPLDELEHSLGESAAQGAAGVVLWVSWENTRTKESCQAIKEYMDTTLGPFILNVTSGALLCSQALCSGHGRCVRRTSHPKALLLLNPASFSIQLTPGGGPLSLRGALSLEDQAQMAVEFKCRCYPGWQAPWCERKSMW
Put plainly: Human serum hyaluronidase inhibition, serum of children with acute lymphoblastic leukemia. The class given is biochemical. The following applies: mean over sera of 5 patients. The protocol:
Five boys diagnosed with acute lymphoblastic leukemia (ALL) before starting treatment were included in the study. These patients were diagnosed at the Department of Pediatric Hematology and Oncology at Jurasz University Hospital in Bydgoszcz, Poland, between 2019 and 2020. Venous blood samples were collected from each child while fasting and placed into serum tubes supplied by Becton Dickinson, located in Franklin Lakes, NJ, USA. The blood samples were left to clot at room temperature for 30 min, then centrifuged for 20 min at 2000× g, also at room temperature. The samples were then collected and stored at a temperature of −80 °C until the time of analysis. The study was approved by the local Bioethics Committee (approval number 608/2019) and was conducted in accordance with the Declaration of Helsinki.
The inhibition of human serum hyaluronidase was assessed using modified methods. The activity of the compounds or extracts was determined by precipitating non-hydrolyzed hyaluronic acid with cetyltrimethylammonium bromide (CTAB). […] The intensity of the complex formation was measured at a wavelength of 600 nm. […] The inhibition of hyaluronidase was calculated using a specific equation, with aescin used as a standard. […]
as §1, §2, §3

For experiment [6], the system named is human hyaluronidase (hHYAL). The following applies: cited from earlier work.

Marks after values point to notes of the source that are not given here.

Sequence of hyaluronidase from bovine testes (bHYAL) (Q2YDK3 entry or part of it): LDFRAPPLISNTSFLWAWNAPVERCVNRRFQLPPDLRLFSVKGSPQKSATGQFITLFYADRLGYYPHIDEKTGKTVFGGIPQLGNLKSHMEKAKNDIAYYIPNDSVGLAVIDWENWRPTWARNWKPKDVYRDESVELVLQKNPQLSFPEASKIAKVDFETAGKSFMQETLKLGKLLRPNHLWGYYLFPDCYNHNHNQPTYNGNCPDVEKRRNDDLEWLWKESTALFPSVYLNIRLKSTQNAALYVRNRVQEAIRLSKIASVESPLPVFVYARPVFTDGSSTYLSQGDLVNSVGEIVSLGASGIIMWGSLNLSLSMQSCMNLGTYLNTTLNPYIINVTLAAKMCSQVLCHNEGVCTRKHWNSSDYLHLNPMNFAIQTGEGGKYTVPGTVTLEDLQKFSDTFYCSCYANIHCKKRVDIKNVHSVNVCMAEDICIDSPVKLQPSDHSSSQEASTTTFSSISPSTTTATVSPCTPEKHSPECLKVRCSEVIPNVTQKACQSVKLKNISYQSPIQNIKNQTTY

Consider `O=C(O)CN(CCN(CC(=O)O)CC(=O)O)CC(=O)O` [EDTA, ethylenediaminetetraacetic acid], for which the “Ferrozine (iron(II) chelation)” value in experiment [1] worked out at 98.9 ± 0.01%.

On to `O=C(/C=C/c1ccc(O)c(O)c1)O[C@H](Cc1ccc(O)c(O)c1)C(=O)O` [rosmarinic acid], for which the IC50 (in general, the concentration that gives 50% inhibition) in experiment [2] is 545 µM.

In the case of `O=C1OCc2c1c(-c1ccc3c(c1)OCO3)c1cc3c(cc1c2O)OCO3` [taiwanin E], in experiment [3], the IC50 was 1.47 µM.

Turning to aescin, in experiment [4], the “IC50 bHYAL” value is listed as 388.8 ± 1.81 ^b µg/mL. In addition, in experiment [5], the “hHYAL inhibition, mean group value” was found to be 63.8%. Moreover, in experiment [6], the “inhibition of human hyaluronidase activity, range” value is 20.00–47.37% and the “inhibition of hyaluronidase activity, mean group value” is reported as 40%.

The record behind these values is publication PMC11313944, “Ethyl Acetate Fraction from Eleutherococcus divaricatus Root Extract as a Promising Source of Compounds with Anti-Hyaluronidase, Anti-Tyrosinase, and Antioxidant Activity but Not Anti-Melanoma Activity” (Molecules, 2024).
